# Source: PubChem BioAssay (NCI)
#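 Five compound concentrations were applied to cells in 96-well plates for 48 hours; endpoints were derived by simple linear interpolation of the resulting dose-response curve. At the GI50, growth is halved. At the TGI there is no net growth.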
# Key:
# Assay in all cases: NCI-60 cell line screen, 48 h
# [1] = tested on: SK-MEL-28 melanoma
# [2] = tested on: HS 578T breast
# [3] = tested on: SK-MEL-2 melanoma
# [4] = tested on: OVCAR-3 ovarian
# [5] = tested on: MOLT-4 leukemia
# [6] = tested on: SF-268 CNS
# [7] = tested on: K-562 leukemia
# [8] = tested on: HCT-116 colon
# [9] = tested on: OVCAR-4 ovarian
# [10] = tested on: SN12C renal
# [11] = tested on: SF-295 CNS
# [12] = tested on: MALME-3M melanoma
# [13] = tested on: UO-31 renal
# [14] = tested on: SNB-19 CNS
# [15] = tested on: A549 NSCLC
# [16] = tested on: OVCAR-5 ovarian
# [17] = tested on: TK-10 renal
# [18] = tested on: HL-60(TB) leukemia
# [19] = tested on: NCI-H23 lung
# [20] = tested on: UACC-62 melanoma
# [21] = tested on: MDA-MB-231 breast
# [22] = tested on: SW-620 colon
# [23] = tested on: RPMI-8226 leukemia
# [24] = tested on: EKVX NSCLC
# [25] = tested on: HT29 colon
# [26] = tested on: LOX IMVI melanoma
# [27] = tested on: CCRF-CEM leukemia
# [28] = tested on: HOP-92 NSCLC
# [29] = tested on: M14 melanoma
# [30] = tested on: UACC-257 melanoma
# [31] = tested on: KM12 colon
# [32] = tested on: NCI-H226 lung
# [33] = tested on: DU-145 prostate
# [34] = tested on: SK-MEL-5 melanoma
# [35] = tested on: BT-549 breast
# [36] = tested on: SNB-75 CNS
# [37] = tested on: OVCAR-8 ovarian
# [38] = tested on: 786-0 renal
# [39] = tested on: A498 renal
# [40] = tested on: HOP-62 NSCLC
# [41] = tested on: HCT-15 colon
# [42] = tested on: ACHN renal
# [43] = tested on: NCI-H522 lung
# [44] = tested on: SK-OV-3 ovarian
# [45] = tested on: U251 CNS
# [46] = tested on: MCF7 breast
# [47] = tested on: SR leukemia
# [48] = tested on: SF-539 CNS
# [49] = tested on: NCI/ADR-RES ovarian
# [50] = tested on: COLO 205 colon
# [51] = tested on: IGROV1 ovarian
# [52] = tested on: NCI-H460 lung
# [53] = tested on: MDA-MB-435
# [54] = tested on: T-47D breast
# [55] = tested on: PC-3 prostate
# [56] = tested on: HCC-2998 colon
# [57] = tested on: CAKI-1 renal
# [58] = tested on: RXF 393 renal
smiles,measurement,setting,value
Cc1cccc(Cl)c1NC(=O)c1cnc(Nc2cc(N3CCOCC3)cc(S(C)(=O)=O)c2)s1,GI50,[1],> 5140 nM
same,TGI,[1],> 10000 nM
same,GI50,[2],138 nM
same,TGI,[2],826 nM
same,GI50,[3],> 10000 nM
same,TGI,[3],> 10000 nM
same,GI50,[4],476 nM
same,TGI,[4],> 10000 nM
same,GI50,[5],5710 nM
same,TGI,[5],> 10000 nM
same,GI50,[6],354 nM
same,TGI,[6],> 10000 nM
same,GI50,[7],5.69 nM
same,TGI,[7],> 10000 nM
same,GI50,[8],313 nM
same,TGI,[8],> 10000 nM
same,GI50,[9],> 10000 nM
same,TGI,[9],> 10000 nM
same,GI50,[10],455 nM
same,TGI,[10],> 10000 nM
same,GI50,[11],> 4230 nM
same,TGI,[11],> 10000 nM
same,GI50,[12],> 4160 nM
same,TGI,[12],> 10000 nM
same,GI50,[13],199 nM
same,TGI,[13],> 6980 nM
same,GI50,[14],> 4950 nM
same,TGI,[14],> 10000 nM
same,GI50,[15],2160 nM
same,TGI,[15],> 10000 nM
same,GI50,[16],257 nM
same,TGI,[16],> 10000 nM
same,GI50,[17],132 nM
same,TGI,[17],1150 nM
same,GI50,[18],9760 nM
same,TGI,[18],> 10000 nM
same,GI50,[19],> 10000 nM
same,TGI,[19],> 10000 nM
same,GI50,[20],922 nM
same,TGI,[20],> 10000 nM
same,GI50,[21],141 nM
same,TGI,[21],> 3400 nM
same,GI50,[22],> 10000 nM
same,TGI,[22],> 10000 nM
same,GI50,[23],> 10000 nM
same,TGI,[23],> 10000 nM
same,GI50,[24],1240 nM
same,TGI,[24],> 10000 nM
same,GI50,[25],203 nM
same,TGI,[25],663 nM
same,GI50,[26],97.7 nM
same,TGI,[26],938 nM
same,GI50,[27],> 10000 nM
same,TGI,[27],> 10000 nM
same,GI50,[28],29.4 nM
same,TGI,[28],303 nM
same,GI50,[29],4010 nM
same,TGI,[29],> 10000 nM
same,GI50,[30],> 4820 nM
same,TGI,[30],> 10000 nM
same,GI50,[31],> 10000 nM
same,TGI,[31],> 10000 nM
same,TGI,[32],> 10000 nM
same,GI50,[33],1200 nM
same,TGI,[33],5140 nM
same,GI50,[34],> 8890 nM
same,TGI,[34],> 10000 nM
same,GI50,[35],9750 nM
same,TGI,[35],> 10000 nM
same,GI50,[36],20.2 nM
same,TGI,[36],196 nM
same,GI50,[37],516 nM
same,TGI,[37],> 10000 nM
same,GI50,[38],171 nM
same,TGI,[38],> 5310 nM
same,GI50,[39],254 nM
same,TGI,[39],2390 nM
same,GI50,[40],198 nM
same,TGI,[40],> 10000 nM
same,GI50,[41],3000 nM
same,TGI,[41],> 10000 nM
same,GI50,[42],364 nM
same,TGI,[42],> 7110 nM
same,GI50,[43],264 nM
same,TGI,[43],> 10000 nM
same,GI50,[44],191 nM
same,TGI,[44],> 8300 nM
same,GI50,[45],> 5570 nM
same,TGI,[45],> 10000 nM
same,GI50,[46],> 8990 nM
same,TGI,[46],> 10000 nM
same,GI50,[47],> 10000 nM
same,TGI,[47],> 10000 nM
same,GI50,[48],306 nM
same,TGI,[48],> 10000 nM
same,GI50,[49],9940 nM
same,TGI,[49],> 10000 nM
same,GI50,[50],572 nM
same,TGI,[50],> 10000 nM
same,GI50,[51],54.1 nM
same,TGI,[51],521 nM
same,GI50,[52],> 9520 nM
same,TGI,[52],> 10000 nM
same,GI50,[53],> 9630 nM
same,TGI,[53],> 10000 nM
same,GI50,[54],292 nM
same,TGI,[54],> 10000 nM
same,GI50,[55],1460 nM
same,TGI,[55],> 10000 nM
same,GI50,[56],> 2530 nM
same,TGI,[56],> 10000 nM
same,GI50,[57],97.5 nM
same,TGI,[57],742 nM
same,GI50,[58],103 nM
same,TGI,[58],994 nM
